Source: PMC4068829 (Journal of medicinal chemistry, 2013)
Where two headings read alike, the source gives them in different places.

Tests used:
human MATE2-K = human MATE2-K (Homo sapiens, UniProt Q86VL8); type: cell-based; conditions: for did not inhibit MATE2-K up to: highest concentration without inhibition, data not shown
MATE1 [1] = target: T1, MATE1 (Homo sapiens, UniProt Q96FL8); experiment: High throughput screen
T1 sequence (Q96FL8 1-570): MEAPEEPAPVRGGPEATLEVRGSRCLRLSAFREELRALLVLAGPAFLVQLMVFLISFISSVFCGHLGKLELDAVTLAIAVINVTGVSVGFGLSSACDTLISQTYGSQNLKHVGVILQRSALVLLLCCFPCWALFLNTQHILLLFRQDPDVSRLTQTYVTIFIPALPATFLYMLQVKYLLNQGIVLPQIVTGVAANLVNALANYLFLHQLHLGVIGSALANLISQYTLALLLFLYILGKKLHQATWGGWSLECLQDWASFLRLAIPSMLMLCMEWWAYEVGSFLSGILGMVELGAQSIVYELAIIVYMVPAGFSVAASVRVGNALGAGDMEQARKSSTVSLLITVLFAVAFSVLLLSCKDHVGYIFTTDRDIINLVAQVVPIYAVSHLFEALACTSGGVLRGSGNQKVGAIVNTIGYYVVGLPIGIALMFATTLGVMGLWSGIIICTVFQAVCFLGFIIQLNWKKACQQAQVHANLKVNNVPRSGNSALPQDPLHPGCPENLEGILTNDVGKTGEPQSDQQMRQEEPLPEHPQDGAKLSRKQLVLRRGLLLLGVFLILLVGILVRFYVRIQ

human OCT2 = target: T2, human OCT2 (Homo sapiens, UniProt O15244); type: cell-based
T2 sequence (O15244 1-555): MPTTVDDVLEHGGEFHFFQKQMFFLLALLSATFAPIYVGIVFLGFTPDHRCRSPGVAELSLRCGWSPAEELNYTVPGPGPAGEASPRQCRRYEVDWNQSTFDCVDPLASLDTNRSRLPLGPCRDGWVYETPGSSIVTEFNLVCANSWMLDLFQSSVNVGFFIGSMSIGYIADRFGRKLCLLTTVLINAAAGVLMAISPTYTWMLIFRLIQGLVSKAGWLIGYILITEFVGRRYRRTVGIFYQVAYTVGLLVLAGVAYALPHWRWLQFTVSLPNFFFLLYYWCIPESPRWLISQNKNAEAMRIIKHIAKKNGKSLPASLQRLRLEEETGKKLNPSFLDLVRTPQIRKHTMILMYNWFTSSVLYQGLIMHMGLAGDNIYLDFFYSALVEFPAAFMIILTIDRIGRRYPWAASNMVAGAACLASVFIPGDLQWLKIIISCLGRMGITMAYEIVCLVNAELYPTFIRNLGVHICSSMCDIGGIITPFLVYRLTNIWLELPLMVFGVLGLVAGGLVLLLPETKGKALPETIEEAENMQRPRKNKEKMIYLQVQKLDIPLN

MATE1 [2] = target: T1, MATE1; type: cell-based
[3] = cited from earlier work
MATE1 [4] = target: T1, MATE1; experiment: in vitro; conditions: HEK cells stably overexpressing MATE1, pH 7.4
MATE1 [5] = target: T1, MATE1; experiment: 14C-metformin uptake in HEK293 cells stably expressing MATE1
MATE1 [6] = target: T1, MATE1
[7] = ref 53 (Micromedex); cited from earlier work
[8] = clinical plasma concentration, ref 54-58 (a-e)

human MATE2-K, sequence (Q86VL8 1-566 isoform Q86VL8-3): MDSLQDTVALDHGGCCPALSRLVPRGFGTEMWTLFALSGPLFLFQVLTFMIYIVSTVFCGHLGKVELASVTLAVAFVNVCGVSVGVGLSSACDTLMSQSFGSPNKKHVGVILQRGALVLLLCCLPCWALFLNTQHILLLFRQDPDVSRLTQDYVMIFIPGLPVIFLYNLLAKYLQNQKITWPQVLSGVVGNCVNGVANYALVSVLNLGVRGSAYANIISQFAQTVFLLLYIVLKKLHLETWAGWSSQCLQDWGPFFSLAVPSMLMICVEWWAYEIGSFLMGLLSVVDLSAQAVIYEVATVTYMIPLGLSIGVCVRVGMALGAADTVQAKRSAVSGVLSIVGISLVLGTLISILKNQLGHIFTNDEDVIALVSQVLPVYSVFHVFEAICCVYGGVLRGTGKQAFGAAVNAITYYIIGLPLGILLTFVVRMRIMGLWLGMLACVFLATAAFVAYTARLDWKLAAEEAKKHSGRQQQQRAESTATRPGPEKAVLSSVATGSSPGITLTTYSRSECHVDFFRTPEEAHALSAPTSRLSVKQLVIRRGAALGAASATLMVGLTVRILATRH

CO[C@@H]1[C@@H](O[C@@H]2O[C@H](C)[C@@H](O[C@H]3C[C@@](C)(O)[C@@H](OC(=O)CC(C)C)[C@H](C)O3)[C@H](N(C)C)[C@H]2O)[C@@H](CC=O)C[C@@H](C)[C@@H](O)/C=C/C=C/C[C@@H](C)OC(=O)C[C@H]1O [Leucomycin]
IC50 (human MATE2-K): 125 µM
IC50 (MATE1 [1]): 16 µM
inhibition at 20 µM (MATE1 [1]; human, HEK cells stably overexpressing MATE1, pH 7.4, probe ASP+ (5 µM)): 56 ± 1%
IC50 (human OCT2): 182 µM
IC50 (MATE1 [2]): 11.1 µM

O=C1c2c(O)ccc(O)c2C(=O)c2c(NCCNCCO)ccc(NCCNCCO)c21 [Mitoxantrone]
Cmax ([3]; in vivo): 630 nM

[H]/N=C(\N/C(=N/[H])NCCCCCCNC(=N)NC(=N)Nc1ccc(Cl)cc1)Nc1ccc(Cl)cc1 [Chlorhexidine]
IC50 (MATE1 [1]): 3.1 µM

CN(C)c1ccc(/C=C/c2cc[n+](C)cc2)cc1 [ASP^+, 4-(4-(Dimethylamino)styryl)-N-methylpyridinium iodide]
Km at […] (MATE1 [4]): 34 µM

COc1ccc2c(c1OC)C(=O)O[C@@H]2[C@H]1c2c(cc3c(c2OC)OCO3)CCN1C [Noscapine]
did not inhibit MATE2-K up to (human MATE2-K): > 500 µM

CN1C[C@H](C(=O)N[C@]2(C)O[C@@]3(O)[C@@H]4CCCN4C(=O)[C@H](Cc4ccccc4)N3C2=O)C[C@@H]2c3cccc4[nH]cc(c34)C[C@H]21 [Dihydroergotamine]
IC50 (MATE1 [1]): 8 µM

CC(C)(C)NC(=O)[C@@H]1CN(Cc2cccnc2)CCN1C[C@@H](O)C[C@@H](Cc1ccccc1)C(=O)N[C@H]1c2ccccc2C[C@H]1O [Indinavir]
Cmax [3, 8]: 9800 nM

COc1cc2c3cc1Oc1cc(ccc1O)C[C@@H]1c4c(cc(OC)c(O)c4Oc4ccc(cc4)C[C@@H]3N(C)CC2)CC[N+]1(C)C [Tubocurarine]
IC50 (MATE1 [1]): 1.1 µM
Cmax,unbound /IC50 (MATE1, text) (MATE1 [2]): 0.07

COc1ccccc1OCCNCC(O)COc1cccc2[nH]c3ccccc3c12 (stereo not drawn) [Carvedilol]
did not inhibit MATE2-K up to (human MATE2-K): > 500 µM

CN1C2CCCC1CC(NC(=O)c1nn(C)c3ccccc13)C2 (stereo not drawn) [Granisetron]
IC50 (MATE1 [1]): 9.9 µM

CCc1c2c(nc3ccc(OC(=O)N4CCC(N5CCCCC5)CC4)cc13)-c1cc3c(c(=O)n1C2)COC(=O)[C@]3(O)CC [Irinotecan]
Cmax ([3]; in vivo): 4600 nM

NC(N)=Nc1nc(CSCCC(N)=NS(N)(=O)=O)cs1 [Famotidine]
IC50 (MATE1 [5]): 0.09 µM
Cmax,unbound/ IC50 of MATE1, Metformin (MATE1 [5]; ratio, IC50 with 14C-metformin in HEK293-MATE1, threshold ≥ 0.1): 4.34
IC50 (MATE1 [6]): 0.16 µM
Cmax,unbound/ IC50 of MATE1, Metformin Polarized Cells (MATE1 [6]; ratio, IC50 with 14C-metformin in polarized MDCK-hMATE1, threshold ≥ 0.1): 2.44
Cmax ([3]; in vivo): 460 nM
Cmax,unbound/ IC50 of MATE1, ASP^+ (MATE1 [2]; ratio, IC50 with ASP+ in HEK293-MATE1, clinical relevance threshold ≥ 0.1): 0.51

CCOC(=O)c1ccc(OC(=O)CCCCCNC(=N)N)cc1 [Gabaxate]
IC50 (MATE1 [1]; read-out: prIC50, predicted IC50 estimated from screening inhibition at 20 μM): 0.8 µM

COc1ccnc(C[S+]([O-])c2nc3ccc(OC(F)F)cc3[nH]2)c1OC (stereo not drawn) [Pantoprazole]
Protein Binding [% bound] [7]: 98 % bound

NC1=NCC2c3ccccc3Cc3ccccc3N12 (stereo not drawn) [Epinastine]
IC50 (MATE1 [1]): 0.6 µM

CC[C@@]1(O)C(=O)OCc2c1cc1n(c2=O)Cc2cc3c(CN(C)C)c(O)ccc3nc2-1 [Topotecan]
IC50 (MATE1 [1]): 19.7 µM

Cc1nccn1CC1CCc2c(c3ccccc3n2C)C1=O (stereo not drawn) [Ondansetron]
Protein Binding [% bound] [7]: 73 % bound
Cmax [3, 8]: 440 nM

C#C[C@]1(O)CC[C@H]2[C@@H]3CCc4cc(O)ccc4[C@H]3CC[C@@]21C [Ethinyl estradiol]
IC50 (MATE1 [1]): 13.5 µM

N=C(N)c1ccc(OCCCCCOc2ccc(C(=N)N)cc2)cc1 [Pentamidine]
Cmax ([3]; in vivo): 730 nM
